Some test systems named below: HOP-62 NSCLC; UACC-62 melanoma; RXF 393 renal; MCF7 breast; SK-MEL-5 melanoma; OVCAR-4 ovarian; EKVX NSCLC; MDA-MB-231 breast; SNB-19 CNS; BT-549 breast.
What all share (experiment): NCI-60 cell line screen, 48 h

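Assay format: 96-well plates, 48-hour exposure. GI50 is the concentration that inhibits growth by half. The concentration for full growth arrest is given as TGI.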 A value given as a limit tells only on which side of the number the result lay.

On to `Cc1c(Nc2nccc3cc(CN4CC[C@@H](O)C4)cnc23)cccc1-c1cccc(-c2nc3cc(CN4CC[C@@H](C(=O)O)C4)cc(C#N)c3o2)c1C`, for which the GI50 in the test on HOP-62 NSCLC was over 100 µM; in the test on UACC-62 melanoma, 15.7 µM; in the test on RXF 393 renal, 2 µM; with MCF7 breast it was 1.52 µM; in the test on SK-MEL-5 melanoma, 10.2 µM; in the test with OVCAR-4 ovarian, 14.3 µM. In addition, the GI50 with EKVX NSCLC is over 100 µM; in the test with MDA-MB-231 breast it was 7.45 µM; in the test with SNB-19 CNS, 16.5 µM; with BT-549 breast it was 1.75 µM. The TGI with HOP-62 NSCLC was over 100 µM; in the test with UACC-62 melanoma, 38.1 µM; with RXF 393 renal, 5.41 µM; with MCF7 breast, 4.26 µM; with SK-MEL-5 melanoma it was 22.7 µM; in the test with OVCAR-4 ovarian it was over 100 µM. For the same molecule, the TGI in the test on EKVX NSCLC is over 100 µM; in the test on MDA-MB-231 breast, 26.2 µM; in the test on SNB-19 CNS, 46.2 µM; in the test with BT-549 breast, 8.68 µM.
With `CCN1CCN(c2cc(C(=O)Nc3cccc(Nc4ccc5c(OC)cccc5n4)c3)cc(C(F)(F)F)c2)CC1`, the GI50 is 1.02 µM with HOP-62 NSCLC; 1.5 µM in the test on UACC-62 melanoma; 0.918 µM in the test with RXF 393 renal; 0.679 µM in the test with MCF7 breast; 1.55 µM in the test with SK-MEL-5 melanoma; 1.57 µM in the test with OVCAR-4 ovarian. Besides, the GI50 in the test with EKVX NSCLC is 3.07 µM; in the test with MDA-MB-231 breast, 1.8 µM; with SNB-19 CNS, 2.1 µM; in the test with BT-549 breast, 3.78 µM. For the same molecule, the TGI in the test on HOP-62 NSCLC was 4.04 µM; in the test on UACC-62 melanoma, 5.77 µM; in the test on RXF 393 renal, 4.86 µM; in the test with MCF7 breast, 2.28 µM; in the test with SK-MEL-5 melanoma, 5.54 µM; with OVCAR-4 ovarian it was 9.32 µM. Besides, the TGI in the test with EKVX NSCLC worked out at 9.46 µM; with MDA-MB-231 breast, 6.47 µM; in the test with SNB-19 CNS it was 7.01 µM; in the test with BT-549 breast, 8.67 µM.
In the case of `COc1cc(S(=O)(=O)Nc2nc(-c3ccc(N4C(=O)C(C)SC4c4ccccc4O)cc3)cs2)ccc1Cl` (centres undefined), the GI50 in the test with HOP-62 NSCLC was 59.4 µM; in the test on UACC-62 melanoma, 39.9 µM; in the test with RXF 393 renal, over 100 µM; in the test on MCF7 breast it was 49 µM; in the test on SK-MEL-5 melanoma, 26 µM; with OVCAR-4 ovarian, 26.4 µM. The GI50 was 42.8 µM in the test on EKVX NSCLC, 32.6 µM in the test on MDA-MB-231 breast, 43.3 µM in the test on SNB-19 CNS and 32 µM with BT-549 breast. Also, the TGI in the test on HOP-62 NSCLC, in the test on UACC-62 melanoma, with RXF 393 renal, with MCF7 breast, in the test with SK-MEL-5 melanoma and in the test with OVCAR-4 ovarian was over 100 µM each time. The TGI in the test with EKVX NSCLC, in the test on MDA-MB-231 breast, in the test on SNB-19 CNS and with BT-549 breast was over 100 µM each time.
Turning to `CC(C)=Cc1cc(C)c2ccc(C)c3c2c1C(C)=C(O)C3=O`, the GI50 is 28.4 µM in the test with HOP-62 NSCLC; 19.8 µM with UACC-62 melanoma; 41.9 µM in the test with RXF 393 renal; 53.5 µM in the test with MCF7 breast; 15.3 µM with SK-MEL-5 melanoma; over 100 µM with OVCAR-4 ovarian. The GI50 with EKVX NSCLC is 40.8 µM; in the test with MDA-MB-231 breast, 20.4 µM; in the test on SNB-19 CNS, 23.1 µM; in the test with BT-549 breast, 28.7 µM. For the same molecule, the TGI in the test on HOP-62 NSCLC is 61.7 µM; in the test on UACC-62 melanoma, 46.7 µM; in the test with RXF 393 renal it was over 100 µM; with MCF7 breast it was over 100 µM; in the test with SK-MEL-5 melanoma, 28.9 µM; in the test with OVCAR-4 ovarian, over 100 µM. The TGI was over 100 µM with EKVX NSCLC, 43.3 µM in the test on MDA-MB-231 breast, 75.6 µM in the test on SNB-19 CNS and 89.5 µM in the test with BT-549 breast.
As for `O=C1NC(=O)C(c2cccc(Cl)c2)=C1Nc1ccc(Cl)c(C(=O)O)c1`, the GI50 with HOP-62 NSCLC, in the test on UACC-62 melanoma, in the test on RXF 393 renal, with MCF7 breast, in the test on SK-MEL-5 melanoma and in the test with OVCAR-4 ovarian was over 25 µM each time. The GI50 in the test on EKVX NSCLC, in the test on MDA-MB-231 breast, in the test with SNB-19 CNS and with BT-549 breast was over 25 µM throughout. Moreover, the TGI with HOP-62 NSCLC, in the test on UACC-62 melanoma, with RXF 393 renal, in the test on MCF7 breast, with SK-MEL-5 melanoma and in the test with OVCAR-4 ovarian was over 25 µM in each case. The TGI in the test on EKVX NSCLC, in the test with MDA-MB-231 breast, with SNB-19 CNS and in the test on BT-549 breast was over 25 µM throughout.
For the molecule `CC12CCC(=O)C(O1)C1C(=O)c3ccc4c(ccc5ccccc54)c3C(=O)C12` (centres undefined), the GI50 in the test on HOP-62 NSCLC is 26.5 µM; in the test on UACC-62 melanoma, 1.46 µM; in the test on MCF7 breast, 3.89 µM; with SK-MEL-5 melanoma, 1.63 µM; in the test with OVCAR-4 ovarian it was 1.4 µM; with EKVX NSCLC it was 8.47 µM. In addition, the values for the GI50 with MDA-MB-231 breast, in the test on SNB-19 CNS and in the test with BT-549 breast were 2.14 µM, 20.9 µM and 6.69 µM, respectively. The TGI in the test on HOP-62 NSCLC turned out to be 50.3 µM; in the test with UACC-62 melanoma, 2.86 µM; in the test with RXF 393 renal it was 2.03 µM; with MCF7 breast it was 13.4 µM; in the test on SK-MEL-5 melanoma, 3.3 µM; in the test with OVCAR-4 ovarian, 3.01 µM. In addition, the TGI in the test with EKVX NSCLC worked out at 19 µM; in the test with MDA-MB-231 breast, 6.64 µM; in the test on SNB-19 CNS, 52 µM; in the test with BT-549 breast, 13.2 µM.
As for `O=C1C=CC(=O)c2c1ccc1c3ccccc3n(Cc3ccccc3)c21`, the TGI was over 100 µM with HOP-62 NSCLC; 67.8 µM in the test with UACC-62 melanoma; 32.8 µM with RXF 393 renal; 45.6 µM in the test on MCF7 breast; over 90 µM with SK-MEL-5 melanoma; 18.1 µM in the test with OVCAR-4 ovarian. Besides, the TGI with EKVX NSCLC was over 100 µM; in the test on MDA-MB-231 breast, 43.1 µM; in the test with SNB-19 CNS it was over 100 µM; in the test with BT-549 breast, 43.9 µM.
For `CC1=C(CO)C(=O)O[C@@H]([C@@H](C)[C@H]2CC[C@H]3[C@@H]4C[C@H]5O[C@]56[C@@H](O)C=CC(=O)[C@]6(C)[C@H]4CC[C@]23C)C1`, the TGI with HOP-62 NSCLC came out at 2.48 µM; in the test with UACC-62 melanoma, 2.7 µM; with RXF 393 renal, 1.66 µM; in the test with MCF7 breast, 2.43 µM; in the test on SK-MEL-5 melanoma, 2.79 µM; with OVCAR-4 ovarian, 1.8 µM. Moreover, the TGI came to 1.45 µM in the test with EKVX NSCLC, 1.77 µM in the test on MDA-MB-231 breast, 6.07 µM in the test with SNB-19 CNS and 2.15 µM with BT-549 breast. For the same molecule, the GI50 is 0.44 µM in the test on RXF 393 renal; 0.345 µM with MCF7 breast; 0.434 µM in the test with EKVX NSCLC; 0.491 µM in the test on MDA-MB-231 breast; 0.79 µM with BT-549 breast.
